Measured values reported in patent US10179782B2, “Substituted sulfonamide compounds” (Genentech, Inc., priority 2016, dated 2019).
Like-named read-outs stand apart in the source and are kept apart here.

Biological target: T1, human TRPA1 (Homo sapiens, UniProt O75762)
T1 construct: expressed in transfected cells; host or cells: CHO cells
Test: TRPA1 FLIPR Tetra calcium influx assay in CHO cells (block of cinnamaldehyde-induced calcium influx)
Assay type: cell-based
Conditions: CHO cells expressing TRPA1, agonist cinnamaldehyde 75 uM, read-out: hTRPA1 CHO Ca2+ AUC EVO (IC50)
Procedure: IC50s (effective concentration) of compounds on the human and rat TRPA1 channels were determined using a FLIPR Tetra instrument. CHO cells expressing TRPA1 were plated into 384-well plates, incubated overnight at 37 C, and loaded with BD calcium indicator dye for 1 hr at 37° C. followed by 15 minutes at room temperature. The assay buffer was Hank's Balanced Salt Solution (HBSS) containing 20 mM HEPES (pH readjusted to 7.4) along with 0.02% BSA.
Following dye load and plate cool down, compounds were added to the cells using FLIPR Tetra. Plates were then incubated with compounds for 20 minutes at room temperature prior to adding agonist. Following this incubation, ˜EC80 concentration of cinnamaldehyde (75 uM for human TRPA1 and 45 uM for rat TRPA1) was added to active the channels and block of cinnamaldehyde induced calcium influx was measured.
IC50s were fit with a standard Hill function, keeping the Hill coefficient (n) fixed to 1.5. Fixing the Hill coefficient will generally reduce variability of the IC50 determination. The IC50s were individually examined to make sure the MIN and MAX points were set correctly prior to validation of the results.

[1] = Table 2, 20 min compound incubation, Hill coefficient fixed to 1.5
[2] = Table 1, with vs without substituent at R2/R3

T1 sequence (O75762 whole entry): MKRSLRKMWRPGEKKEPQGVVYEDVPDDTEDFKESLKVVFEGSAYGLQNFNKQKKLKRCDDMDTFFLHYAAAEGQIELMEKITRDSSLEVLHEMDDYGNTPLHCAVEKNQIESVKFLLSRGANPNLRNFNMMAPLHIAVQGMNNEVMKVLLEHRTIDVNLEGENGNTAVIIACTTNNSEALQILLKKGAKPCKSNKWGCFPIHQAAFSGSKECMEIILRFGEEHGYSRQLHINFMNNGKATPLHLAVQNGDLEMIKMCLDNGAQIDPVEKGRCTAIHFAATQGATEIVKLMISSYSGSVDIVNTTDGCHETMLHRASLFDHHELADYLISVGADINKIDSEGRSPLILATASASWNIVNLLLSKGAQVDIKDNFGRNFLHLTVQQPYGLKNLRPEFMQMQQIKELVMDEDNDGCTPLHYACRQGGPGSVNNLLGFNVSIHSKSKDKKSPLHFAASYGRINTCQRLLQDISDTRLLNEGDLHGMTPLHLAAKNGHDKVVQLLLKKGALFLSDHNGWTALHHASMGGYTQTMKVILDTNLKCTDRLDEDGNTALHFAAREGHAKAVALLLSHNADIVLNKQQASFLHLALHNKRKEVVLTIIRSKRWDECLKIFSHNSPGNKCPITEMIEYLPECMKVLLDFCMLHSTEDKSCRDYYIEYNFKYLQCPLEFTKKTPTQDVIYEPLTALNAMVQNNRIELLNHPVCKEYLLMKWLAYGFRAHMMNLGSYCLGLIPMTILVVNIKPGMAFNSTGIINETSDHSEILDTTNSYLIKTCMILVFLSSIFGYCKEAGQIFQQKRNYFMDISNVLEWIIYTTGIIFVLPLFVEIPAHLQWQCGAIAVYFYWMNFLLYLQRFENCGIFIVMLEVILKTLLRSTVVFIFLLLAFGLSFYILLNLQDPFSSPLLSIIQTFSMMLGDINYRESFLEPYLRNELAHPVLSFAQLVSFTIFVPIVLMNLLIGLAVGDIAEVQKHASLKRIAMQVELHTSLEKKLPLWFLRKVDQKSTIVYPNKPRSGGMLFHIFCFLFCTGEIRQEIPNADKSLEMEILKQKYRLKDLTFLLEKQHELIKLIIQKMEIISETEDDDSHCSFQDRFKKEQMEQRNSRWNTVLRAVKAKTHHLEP

IC50 [1] | IC50 [2] | Structure (SMILES)
14.6 nM | – | O=C(NCc1cc(-c2cnc(C(F)(F)F)nc2)ncc1F)[C@@H]1[C@H]2C[C@H]2CN1S(=O)(=O)c1ccc(F)cc1 (single isomer, unassigned) [Example 68]
11.3 nM | – | O=C(NCc1ccc(F)c(-c2cnc(C(F)(F)F)nc2)c1)[C@H]1[C@@H]2C[C@@H]2CN1S(=O)(=O)c1ccc(F)cc1 (stereo in doubt) [Example 70, (1S,4R,5R)-3-(4-fluorophenyl)sulfonyl-N-[[4-fluoro-3-[2-(trifluoromethyl)pyrimidin-5-yl]phenyl]methyl]-3-azabicyclo[3.1.0]hexane-4-carboxamide]
14.6 nM | – | O=C(NCc1cc(-c2cnc(C(F)(F)F)nc2)ncc1F)[C@H]1[C@@H]2C[C@@H]2CN1S(=O)(=O)c1ccc(F)cc1 (stereo in doubt) [Example 79, (1S,4R,5R)-3-(4-fluorophenyl)sulfonyl-N-[[5-fluoro-2-[2-(trifluoromethyl)pyrimidin-5-yl]-4-pyridyl]methyl]-3-azabicyclo[3.1.0]hexane-4-carboxamide]
20 nM | – | C[C@H]1[C@H](F)C[C@@H](C(=O)NCc2cc(-c3cnc(C(F)(F)F)nc3)ncc2F)N1S(=O)(=O)c1cccc(Cl)c1 (stereo in doubt) [Example 91, (2S,4R,5S)-1-(3-chlorophenyl)sulfonyl-4-fluoro-N-[[5-fluoro-2-[2-(trifluoromethyl)pyrimidin-5-yl]-4-pyridyl]methyl]-5-methyl-pyrrolidine-2-carboxamide]
8.69 nM | – | C[C@H]1[C@H](F)C[C@@H](C(=O)NCc2cc(-c3cnc(C(F)(F)F)nc3)ncc2F)N1S(=O)(=O)c1ccc(Cl)c(Cl)c1 (stereo in doubt) [Example 92, (2S,4R,5S)-1-(3,4-dichlorophenyl)sulfonyl-4-fluoro-N-[[5-fluoro-2-[2-(trifluoromethyl)pyrimidin-5-yl]-4-pyridyl]methyl]-5-methyl-pyrrolidine-2-carboxamide]
– | 129 nM | O=C(NCc1ccnc(-c2cnc(C(F)(F)F)nc2)c1)[C@@H]1C[C@@H](F)CN1S(=O)(=O)c1ccc(F)cc1 [(2S,4R)-4-fluoro-1-(4-fluorophenyl)sulfonyl-N-[[2-[2-(trifluoromethyl)pyrimidin-5-yl]-4-pyridyl]methyl]pyrrolidine-2-carboxamide, reference compound]
– | 26.7 nM | O=C(NCc1cc(-c2cnc(C(F)(F)F)nc2)ncc1F)[C@@H]1C[C@@H](F)CN1S(=O)(=O)c1ccc(F)cc1 [(2S,4R)-4-fluoro-1-(4-fluorophenyl)sulfonyl-N-[[5-fluoro-2-[2-(trifluoromethyl)pyrimidin-5-yl]-4-pyridyl]methyl]pyrrolidine-2-carboxamide, reference compound]
– | 251 nM | O=C(NCc1cc(-c2cnc(C(F)(F)F)nc2)ncn1)[C@@H]1C[C@@H](F)CN1S(=O)(=O)c1ccc(F)cc1 [(2S,4R)-4-fluoro-1-(4-fluorophenyl)sulfonyl-N-[[6-[2-(trifluoromethyl)pyrimidin-5-yl]pyrimidin-4-yl]methyl]pyrrolidine-2-carboxamide, reference compound]
– | 42.2 nM | O=C(NCc1cc(-c2cnc(C(F)(F)F)nc2)c(Cl)cn1)[C@@H]1C[C@@H](F)CN1S(=O)(=O)c1ccc(F)cc1 [(2S,4R)-N-[[5-chloro-4-[2-(trifluoromethyl)pyrimidin-5-yl]-2-pyridyl]methyl]-4-fluoro-1-(4-fluorophenyl)sulfonyl-pyrrolidine-2-carboxamide, reference compound]
1.91 nM | – | C[C@H]1[C@H](F)C[C@@H](C(=O)NCc2cc(-c3cnc(C(F)(F)F)nc3)ncc2F)N1S(=O)(=O)c1ccc(F)cc1 [Example 1, (2S,4R,5S)-4-fluoro-N-([5-fluoro-2-[2-(trifluoromethyl)pyrimidin-5-yl]pyridin-4-yl]methyl)-1-[(4-fluorobenzene)sulfonyl]-5-methylpyrrolidine-2-carboxamide]
7.46 nM | – | C[C@H]1[C@H](C#N)C[C@@H](C(=O)NCc2cc(-c3cnc(C(F)(F)F)nc3)ccc2F)N1S(=O)(=O)c1ccc(F)cc1 [Example 2, (2S,4R,5S)-4-cyano-N-([2-fluoro-5-[2-(trifluoromethyl)pyrimidin-5-yl]phenyl]methyl)-1-[(4-fluorobenzene)sulfonyl]-5-methylpyrrolidine-2-carboxamide]
1.12 nM | – | C[C@H]1CC[C@@H](C(=O)NCc2cc(Cl)nc(-c3cnc(C(F)(F)F)nc3)c2)N1S(=O)(=O)c1ccc(F)cc1 [Example 3, (2S,5S)—N-([2-chloro-6-[2-(trifluoromethyl)pyrimidin-5-yl]pyridin-4-yl]methyl)-1-[(4-fluorobenzene)sulfonyl]-5-methylpyrrolidine-2-carboxamide]
71.2 nM | – | O=C(NCc1cc(-c2cnc(C(F)(F)F)nc2)ncn1)[C@@H]1CCC2(CC2)N1S(=O)(=O)c1ccc(F)cc1 [Example 4, (5S)-4-[(4-fluorobenzene)sulfonyl]-N-([6-[2-(trifluoromethyl)pyrimidin-5-yl]pyrimidin-4-yl]methyl)-4-azaspiro[2.4]heptane-5-carboxamide]
3.77 nM | – | C[C@H]1[C@H](F)C[C@@H](C(=O)NCc2ccc(F)c(-c3cnc(C(F)(F)F)nc3)c2)N1S(=O)(=O)c1ccc(F)cc1 [Example 5, (2S,4R,5S)-4-fluoro-1-(4-fluorophenyl)sulfonyl-N-[[4-fluoro-3-[2-(trifluoromethyl)pyrimidin-5-yl]phenyl]methyl]-5-methyl-pyrrolidine-2-carboxamide]
9.62 nM | – | COc1nn(-c2cnc(C(F)(F)F)nc2)cc1CNC(=O)[C@@H]1C[C@@H](F)[C@H](C)N1S(=O)(=O)c1ccc(F)cc1 [Example 6, (2S,4R,5S)-4-fluoro-1-(4-fluorophenyl)sulfonyl-N-[[3-methoxy-1-[2-(trifluoromethyl)pyrimidin-5-yl]pyrazol-4-yl]methyl]-5-methyl-pyrrolidine-2-carboxamide]
26.2 nM | – | C[C@H]1[C@H](F)C[C@@H](C(=O)NCc2cn(-c3cnc(C(F)(F)F)nc3)nc2C(F)F)N1S(=O)(=O)c1ccc(F)cc1 [Example 7, (2S,4R,5S)-N-[[3-(difluoromethyl)-1-[2-(trifluoromethyl)pyrimidin-5-yl]pyrazol-4-yl]methyl]-4-fluoro-1-(4-fluorophenyl)sulfonyl-5-methyl-pyrrolidine-2-carboxamide]
17.3 nM | – | C[C@H]1[C@H](F)C[C@@H](C(=O)NCc2cc(-c3cnc(C(F)(F)F)nc3)ncn2)N1S(=O)(=O)c1ccc(F)cc1 [Example 8, (2S,4R,5S)-4-fluoro-1-(4-fluorophenyl)sulfonyl-5-methyl-N-[[6-[2-(trifluoromethyl)pyrimidin-5-yl]pyrimidin-4-yl]methyl]pyrrolidine-2-carboxamide]
42.2 nM | – | O=C(NCc1cc(-c2cnc(C(F)(F)F)nc2)ncn1)[C@@H]1CC[C@H](C(F)(F)F)N1S(=O)(=O)c1ccc(F)cc1 [Example 9, (2S,5R)-1-(4-fluorophenyl)sulfonyl-5-(trifluoromethyl)-N-[[6-[2-(trifluoromethyl)pyrimidin-5-yl]pyrimidin-4-yl]methyl]pyrrolidine-2-carboxamide]
2.26 nM | – | C[C@H]1[C@H](F)C[C@@H](C(=O)NCc2cc(Cl)nc(-c3cnc(C(F)(F)F)nc3)c2)N1S(=O)(=O)c1ccc(F)cc1 [Example 10, (2S,4R,5S)-N-[[2-chloro-6-[2-(trifluoromethyl)pyrimidin-5-yl]-4-pyridyl]methyl]-4-fluoro-1-(4-fluorophenyl)sulfonyl-5-methyl-pyrrolidine-2-carboxamide]
3.17 nM | – | C[C@H]1CC[C@@H](C(=O)NCc2cc(-c3cnc(C(F)(F)F)nc3)nc(-c3cnc(C(F)(F)F)nc3)c2)N1S(=O)(=O)c1ccc(F)cc1 [Example 11, (2S,5S)-N-[[2,6-bis[2-(trifluoromethyl)pyrimidin-5-yl]-4-pyridyl]methyl]-1-(4-fluorophenyl)sulfonyl-5-methyl-pyrrolidine-2-carboxamide]
2.94 nM | – | C[C@H]1[C@H](F)C[C@@H](C(=O)NCc2cc(-c3cnc(C(F)(F)F)nc3)ncc2Cl)N1S(=O)(=O)c1ccc(F)cc1 [Example 12, (2S,4R,5S)-N-[[5-chloro-2-[2-(trifluoromethyl)pyrimidin-5-yl]-4-pyridyl]methyl]-4-fluoro-1-(4-fluorophenyl)sulfonyl-5-methyl-pyrrolidine-2-carboxamide]
23 nM | – | O=C(NCc1ccnc(-c2cnc(C(F)(F)F)nc2)c1)[C@@H]1C[C@@H]2C[C@@H]2N1S(=O)(=O)c1ccc(F)cc1 [Example 13, (1S,3S,5S)-2-(4-fluorophenyl)sulfonyl-N-[[2-[2-(trifluoromethyl)pyrimidin-5-yl]-4-pyridyl]methyl]-2-azabicyclo[3.1.0]hexane-3-carboxamide]
2.14 nM | – | C[C@H]1[C@H](F)C[C@@H](C(=O)NCc2cc(-c3cnc(C(F)(F)F)nc3)ccc2F)N1S(=O)(=O)c1ccc(F)cc1 [Example 14, (2S,4R,5S)-4-fluoro-1-(4-fluorophenyl)sulfonyl-N-[[2-fluoro-5-[2-(trifluoromethyl)pyrimidin-5-yl]phenyl]methyl]-5-methyl-pyrrolidine-2-carboxamide]
0.6 nM | – | O=C(NCc1cc(-c2cnc(C(F)(F)F)nc2)ncc1F)[C@@H]1C[C@@H]2C[C@@H]2N1S(=O)(=O)c1ccc(F)cc1 [Example 15, (1S,3S,5S)-2-(4-fluorophenyl)sulfonyl-N-[[5-fluoro-2-[2-(trifluoromethyl)pyrimidin-5-yl]-4-pyridyl]methyl]-2-azabicyclo[3.1.0]hexane-3-carboxamide]
